For orientation: inhibition means the relative decrease from the control value, in per cent.

Data on 29 molecules can be found in patent US12084419B2, “Cell metabolism modulating compounds and uses thereof” (CRESCENTA BIOSCIENCES, priority 2020, dated 2024).

The target in the test is T1, His6 tagged human recombinant FABP4 (Homo sapiens, UniProt P15090).
T1 construct: purchased Cayman Chemicals 10009549
Nature of the test: FABP4 TR-FRET assay: displacement of BODIPY FL C12 fatty acid. Particulars: triplicates, inhibition of BODIPY FL C12 binding; for inhibition at 1 µM: 1 μM compound; for inhibition at 10 µM: 10 μM compound. An excerpt:
Activity of compounds with FABP4 was profiled using a Terbium (Tb) based time resolved fluorescence energy transfer (TR-FRET) assay. The assay measures the compound mediated displacement of the fluorescent fatty acid BODIPY FL C12 (Thermo Fisher; catalog number D3822) from His6 tagged human recombinant FABP4 (His6-FABP4; Cayman Chemicals, catalog number 10009549) via recording the energy transfer from TB donor molecule on anti-His6-tag antibody to acceptor BODIPY moiety. Briefly, compounds were prepared at a concentration of 0.362 mM and 0.0362 mM, and BODIPY FL C12 was prepared at 4.2 μM, in DMSO. 1.2 μL of each compound or DMSO (vehicle control) and 1.2 μL of BODIPY FL C12 were added into the wells of a 384-well black polypropylene plate. His6-FABP4 and Tb anti-His6 antibody were prepared in the assay buffer (25 mM Tris/HCl, pH 7.4, 0.4 mg/ml y-globulins, 0.010% NP-40, 1 mM DTT) at a concentration of 83 nM and 49.6 nM, respectively. The protein and antibody solutions were then mixed at a ratio of 34:7 (v/v) and incubated on ice for 30 minutes. The assay was initiated by adding 41 μL of the resulting protein/antibody solution into the wells containing the compounds and BODIPY FL C12. The plate was centrifuged and incubated at room temperature for 10 min. The TR-FRET signals were recorded using an EnVision Multilabel plate reader (PerkinElmer; TB excitation 320 nm, BODIPY FL C12 emission 520 nm; TB emission 615 nm). Relative fluorescence ratio (520 nm*10,000/615 nm) were used to calculate the compound mediated inhibition of BODIPY C12 FL fatty acid binding to FABP4. […] Glucose consumption and FABP4 inhibition is shown below in Table 3 below.
(In general: Time-resolved FRET reads energy transfer from a long-lived donor to a nearby acceptor.)

Each structure is given as a SMILES string.

T1 sequence (P15090 whole entry): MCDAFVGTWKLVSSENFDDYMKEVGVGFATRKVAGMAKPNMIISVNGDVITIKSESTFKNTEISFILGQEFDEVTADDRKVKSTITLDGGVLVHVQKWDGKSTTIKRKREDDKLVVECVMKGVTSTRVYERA

Consider `CCCCC1CCCc2c(n(Cc3ccnc(OC)c3)c3c(C(=O)O)cccc23)C1` (centres unmarked) [7-butyl-5-[(2-methoxypyridin-4-yl)methyl]-5H,6H,7H,8H,9H,10H-cyclohepta[b]indole-4-carboxylic acid], for which the inhibition at 1 µM turned out to be 83.4% and the inhibition at 10 µM came out at 88.2%.

Take `CCCCC1CCCc2c(n(Cc3cccc(C(N)=O)c3)c3c(C(=O)NCCO)cccc23)C1` (centres unmarked) [7-butyl-5-[(3-carbamoylphenyl)methyl]-N-(2-hydroxyethyl)-5H,6H,7H,8H,9H,10H-cyclohepta[b]indole-4-carboxamide]: the inhibition at 1 µM came to 10.2%.

Consider `CCCCC1CCc2c(n(Cc3cccc(C(N)=O)c3)c3c(C(=O)O)cccc23)C1` (centres unmarked) [2-butyl-9-[(3-carbamoylphenyl)methyl]-2,3,4,9-tetrahydro-1H-carbazole-8-carboxylic acid], for which the inhibition at 1 µM is 88.5% and the inhibition at 10 µM was 95.5%. As to `CCCCCCC1CCCc2c(n(Cc3cccc(C(F)(F)F)n3)c3c(C(=O)O)cccc23)C1` (centres unmarked) [7-hexyl-5-{[6-(trifluoromethyl)pyridin-2-yl]methyl}-5H,6H,7H,8H,9H,10H-cyclohepta[b]indole-4-carboxylic acid], the inhibition at 10 µM was 79.8%. Turning to `CCCCCCC1CCCc2c(n(Cc3cccc(F)c3)c3c(C(=O)O)cccc23)C1` (centres unmarked) [5-[(3-fluorophenyl)methyl]-7-hexyl-5H,6H,7H,8H,9H,10H-cyclohepta[b]indole-4-carboxylic acid], the inhibition at 1 µM was found to be 93.6% and the inhibition at 10 µM stood at 92.9%. The like results for `CCCCCCC1CCCc2c(n(Cc3ccccc3F)c3c(C(=O)O)cccc23)C1` (centres unmarked) [5-[(2-fluorophenyl)methyl]-7-hexyl-5H,6H,7H,8H,9H,10H-cyclohepta[b]indole-4-carboxylic acid] were, in that order, 77.5% and 87.3%. In the same order, the values of `CCCCCCC1CCCc2c(n(Cc3cccc(C(N)=O)n3)c3c(C(=O)O)cccc23)C1` (centres unmarked) [5-[(6-carbamoylpyridin-2-yl)methyl]-7-hexyl-5H,6H,7H,8H,9H,10H-cyclohepta[b]indole-4-carboxylic acid] are 94% and 95.2%. In the same order, the values of `CCCCCCC1CCCc2c(n(Cc3cccc(C(=O)O)n3)c3c(C(=O)O)cccc23)C1` (centres unmarked) [6-({4-carboxy-7-hexyl-5H,6H,7H,8H,9H,10H-cyclohepta[b]indol-5-yl}methyl)pyridine-2-carboxylic acid] are 91.6% and 96.5%. In the case of `CCCCC1CCCc2c(n(Cc3ccccc3F)c3c(C(=O)O)cccc23)C1` (centres unmarked) [7-butyl-5-[(2-fluorophenyl)methyl]-5H,6H,7H,8H,9H,10H-cyclohepta[b]indole-4-carboxylic acid], the inhibition at 1 µM stood at 92.1% and the inhibition at 10 µM turned out to be 88.1%. For `CCCC1CCCc2c(n(Cc3cccc(C(N)=O)c3)c3c(C(=O)O)cccc23)C1` (centres unmarked) [5-[(3-carbamoylphenyl)methyl]-7-propyl-5H,6H,7H,8H,9H,10H-cyclohepta[b]indole-4-carboxylic acid], the inhibition at 1 µM stood at 85.1% and the inhibition at 10 µM turned out to be 91.4%. In the same order, the values of `CCCCC1CCc2c(c3cccc(C(=O)O)c3n2Cc2cccc(C(N)=O)c2)C1` (centres unmarked) [3-butyl-9-[(3-carbamoylphenyl)methyl]-2,3,4,9-tetrahydro-1H-carbazole-8-carboxylic acid] are 92.4% and 97.2%. As to `CCC1CCc2c(n(Cc3cccc(C(=O)O)c3)c3c(C(=O)O)cccc23)C1` (centres unmarked) [9-[(3-carboxyphenyl)methyl]-2-ethyl-2,3,4,9-tetrahydro-1H-carbazole-8-carboxylic acid], the inhibition at 1 µM worked out at 23.5% and the inhibition at 10 µM turned out to be 69.2%. The like results for `CCCCCCC1CCc2c(n(Cc3ccccc3C(N)=O)c3c(C(=O)O)cccc23)C1` (centres unmarked) [9-[(2-carbamoylphenyl)methyl]-2-hexyl-2,3,4,9-tetrahydro-1H-carbazole-8-carboxylic acid] were, in that order, 31.1% and 80.7%. The like results for `CCC1CCCc2c1c1cccc(C(=O)O)c1n2Cc1cccc(C(N)=O)c1` (centres unmarked) [9-[(3-carbamoylphenyl)methyl]-4-ethyl-2,3,4,9-tetrahydro-1H-carbazole-8-carboxylic acid] were, in that order, 87% and 102%.

For the molecule `CCCC1CCc2c(c3cccc(C(=O)O)c3n2Cc2cccc(C#N)c2)C1` (centres unmarked) [9-[(3-cyanophenyl)methyl]-3-propyl-2,3,4,9-tetrahydro-1H-carbazole-8-carboxylic acid], the inhibition at 1 µM turned out to be 46.8% and the inhibition at 10 µM was determined as 85.4%. Consider `CCCCC1CCCCc2c1c1cccc(C(=O)O)c1n2Cc1cccc(C#N)c1` (centres unmarked) [10-butyl-5-[(3-cyanophenyl)methyl]-5H,6H,7H,8H,9H,10H-cyclohepta[b]indole-4-carboxylic acid], for which the inhibition at 1 µM turned out to be 30.9% and the inhibition at 10 µM amounted to 73.6%. The like results for `CCCCCCC1CCCc2c(n(Cc3cccc(C#N)c3)c3c(C(=O)O)cccc23)C1` (centres unmarked) [5-[(3-cyanophenyl)methyl]-7-hexyl-5H,6H,7H,8H,9H,10H-cyclohepta[b]indole-4-carboxylic acid] were, in that order, 94.1% and 88.7%. On to `CCCCCCC1CCCc2c(n(Cc3cccc(C#N)n3)c3c(C(=O)O)cccc23)C1` (centres unmarked) [5-[(6-cyanopyridin-2-yl)methyl]-7-hexyl-5H,6H,7H,8H,9H,10H-cyclohepta[b]indole-4-carboxylic acid], for which the inhibition at 1 µM was determined as 93.5% and the inhibition at 10 µM is 88.1%. In the same order, the values of `CCC1CCCc2c1c1cccc(C(=O)O)c1n2Cc1cccc(C(=O)O)c1` (centres unmarked) [9-[(3-carboxyphenyl)methyl]-4-ethyl-2,3,4,9-tetrahydro-1H-carbazole-8-carboxylic acid] are 52.1% and 85.4%. The like results for `CCCCCCC1CCCc2c(n(Cc3c(C)noc3C)c3c(C(=O)O)cccc23)C1` (centres unmarked) [5-[(3,5-dimethyl-1,2-oxazol-4-yl)methyl]-7-hexyl-5H,6H,7H,8H,9H,10H-cyclohepta[b]indole-4-carboxylic acid] were, in that order, 79.8% and 95.6%. The like results for `CCCCCC1CCc2c(n(Cc3cccc(C(N)=O)c3)c3c(C(=O)O)cccc23)C1` (centres unmarked) [9-[(3-carbamoylphenyl)methyl]-2-pentyl-2,3,4,9-tetrahydro-1H-carbazole-8-carboxylic acid] were, in that order, 75% and 67%.

As for `N#Cc1cccc(Cn2c3c(c4cccc(C(=O)O)c42)CCCC(CCc2ccccc2)C3)c1` (centres unmarked) [5-[(3-cyanophenyl)methyl]-7-(2-phenylethyl)-5H,6H,7H,8H,9H,10H-cyclohepta[b]indole-4-carboxylic acid], the inhibition at 1 µM was determined as 93.1% and the inhibition at 10 µM was found to be 94.5%. In the same order, the values of `CCCCCCC1CCc2c(n(Cc3ccc(C(N)=O)cc3)c3c(C(=O)O)cccc23)C1` (centres unmarked) [9-[(4-carbamoylphenyl)methyl]-2-hexyl-2,3,4,9-tetrahydro-1H-carbazole-8-carboxylic acid] are 87.3% and 89.3%. The like results for `CCCC1CCCCc2c1c1cccc(C(=O)O)c1n2Cc1cccc(C(N)=O)c1` (centres unmarked) [5-[(3-carbamoylphenyl)methyl]-10-propyl-5H,6H,7H,8H,9H,10H-cyclohepta[b]indole-4-carboxylic acid] were, in that order, 38.8% and 91.6%. The like results for `CCC1CCCc2c1n(Cc1cccc(C(N)=O)c1)c1c(C(=O)O)cccc21` (centres unmarked) [9-[(3-carbamoylphenyl)methyl]-1-ethyl-2,3,4,9-tetrahydro-1H-carbazole-8-carboxylic acid] were, in that order, 90.3% and 95.9%. On to `CCCCCCC1CCCc2c(n(Cc3ccc4ncoc4c3)c3c(C(=O)O)cccc23)C1` (centres unmarked) [5-[(1,3-benzoxazol-6-yl)methyl]-7-hexyl-5H,6H,7H,8H,9H,10H-cyclohepta[b]indole-4-carboxylic acid], for which the inhibition at 1 µM was 101% and the inhibition at 10 µM amounted to 94.9%. In the same order, the values of `CCCCCCC1CCCc2c(n(Cc3ccnc(C(F)(F)F)c3)c3c(C(=O)O)cccc23)C1` (centres unmarked) [7-hexyl-5-{[2-(trifluoromethyl)pyridin-4-yl]methyl}-5H,6H,7H,8H,9H,10H-cyclohepta[b]indole-4-carboxylic acid] are 87.6% and 94.7%. The like results for `CCC1CCc2c1n(Cc1cccc(C(N)=O)c1)c1c(C(=O)O)cccc21` (centres unmarked) [4-[(3-carbamoylphenyl)methyl]-3-ethyl-1H,2H,3H,4H-cyclopenta[b]indole-5-carboxylic acid] were, in that order, 87.3% and 102%.

Take `CCCCCCC1CCCc2c(n(Cc3ccnc(OC)c3)c3c(C(=O)O)cccc23)C1` (centres unmarked) [7-hexyl-5-[(2-methoxypyridin-4-yl)methyl]-5H,6H,7H,8H,9H,10H-cyclohepta[b]indole-4-carboxylic acid]: the inhibition at 1 µM stood at 78.1% and the inhibition at 10 µM turned out to be 82.8%.
